This assay has as its system BaF3-FL KIT D816V or BaF3-FL KIT V560G/D816V cell line. The assay is described as follows: Cell-based assays of c-Kit mutant kinase activity (cell growth, ATPlite). The following applies: at least one of the c-kit cell assays of Example 26. In outline:
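BaF3 cells dependent on full-length human KIT (D816V or V560G/D816V) seeded at 1×10^4 cells/well in RPMI with 10% FBS. Eight-point 1:3 dilutions from 10 μM top final (0.2% DMSO), 3 days at 37° C., 5% CO2. ATPlite luminescence gave IC50.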
Turning to `Cc1[nH]nc(C(=O)Nc2cnc3[nH]c(-c4ccnc(C5CCN(C(=O)C6CC6)CC5)c4)cc3c2)c1C` [P-2207, N-(2-(2-(1-(cyclopropanecarbonyl)piperidin-4-yl)pyridin-4-yl)-1H-pyrrolo[2,3-b]pyridin-5-yl)-4,5-dimethyl-1H-pyrazole-3-carboxamide], the IC50 (commonly the concentration that inhibits the measured activity by half) is < 10 µM. Under `Cc1[nH]nc(C(=O)Nc2cnc3[nH]c(-c4ccnc(N5CCCC5)c4)cc3c2)c1C` [P-2208, 4,5-dimethyl-N-(2-(2-(pyrrolidin-1-yl)pyridin-4-yl)-1H-pyrrolo[2,3-b]pyridin-5-yl)-1H-pyrazole-3-carboxamide] stands < 10 µM; under `Cc1[nH]nc(C(=O)Nc2cnc3[nH]c(-c4ccnc(N5CCCCC5)c4)cc3c2)c1C` [P-2209, 4,5-dimethyl-N-(2-(2-(piperidin-1-yl)pyridin-4-yl)-1H-pyrrolo[2,3-b]pyridin-5-yl)-1H-pyrazole-3-carboxamide], < 10 µM.

Take `Cc1[nH]nc(C(=O)Nc2cnc3[nH]c(-c4ccnc(N5CCC(C)CC5)c4)cc3c2)c1C` [P-2210, 4,5-dimethyl-N-(2-(2-(4-methylpiperidin-1-yl)pyridin-4-yl)-1H-pyrrolo[2,3-b]pyridin-5-yl)-1H-pyrazole-3-carboxamide]: the IC50 was < 10 µM. To `Cc1[nH]nc(C(=O)Nc2cnc3[nH]c(-c4ccnc(C5CCNCC5)c4)cc3c2)c1C` [P-2211, 4,5-dimethyl-N-(2-(2-(piperidin-4-yl)pyridin-4-yl)-1H-pyrrolo[2,3-b]pyridin-5-yl)-1H-pyrazole-3-carboxamide] belongs < 10 µM.

For the compound `Cc1[nH]nc(C(=O)Nc2cnc3[nH]c(-c4ccnc(N5CCC(O)CC5)c4)cc3c2)c1C` [P-2212, N-(2-(2-(4-hydroxypiperidin-1-yl)pyridin-4-yl)-1H-pyrrolo[2,3-b]pyridin-5-yl)-4,5-dimethyl-1H-pyrazole-3-carboxamide], the IC50 was < 10 µM.

`Cc1[nH]nc(C(=O)Nc2cnc3[nH]c(-c4ccnc(N5CCCC(O)C5)c4)cc3c2)c1C` (centres unmarked) [P-2213, N-(2-(2-(3-hydroxypiperidin-1-yl)pyridin-4-yl)-1H-pyrrolo[2,3-b]pyridin-5-yl)-4,5-dimethyl-1H-pyrazole-3-carboxamide]: the half-inhibitory concentration (IC50) was < 10 µM.

Regarding `CC(=O)N1CCN(c2cc(-c3cc4cc(NC(=O)c5n[nH]c(C)c5C)cnc4[nH]3)ccn2)CC1` [P-2214, N-(2-(2-(4-acetylpiperazin-1-yl)pyridin-4-yl)-1H-pyrrolo[2,3-b]pyridin-5-yl)-4,5-dimethyl-1H-pyrazole-3-carboxamide], the concentration for half-maximal inhibition (IC50) was < 10 µM. Under `CC(C)=CC(=O)N1CCN(c2cc(-c3cc4cc(NC(=O)c5n[nH]c(C)c5C)cnc4[nH]3)ccn2)CC1` [P-2215, 4,5-dimethyl-N-(2-(2-(4-(3-methylbut-2-enoyl)piperazin-1-yl)pyridin-4-yl)-1H-pyrrolo[2,3-b]pyridin-5-yl)-1H-pyrazole-3-carboxamide] stands < 10 µM; under `Cc1[nH]nc(C(=O)Nc2cnc3[nH]c(-c4ccnc(C(=O)N5CCOCC5)c4)cc3c2)c1C` [P-2216, 4,5-dimethyl-N-(2-(2-(morpholine-4-carbonyl)pyridin-4-yl)-1H-pyrrolo[2,3-b]pyridin-5-yl)-1H-pyrazole-3-carboxamide], < 10 µM. Regarding `Cc1[nH]nc(C(=O)Nc2cnc3[nH]c(-c4ccnc(C(=O)N5CCN(C)CC5)c4)cc3c2)c1C` [P-2217, 4,5-dimethyl-N-(2-(2-(4-methylpiperazine-1-carbonyl)pyridin-4-yl)-1H-pyrrolo[2,3-b]pyridin-5-yl)-1H-pyrazole-3-carboxamide], the half-maximal inhibitory concentration (IC50) is < 10 µM. Under `Cc1[nH]nc(C(=O)Nc2cnc3[nH]c(-c4ccnc(C(=O)N5CCCC5)c4)cc3c2)c1C` [P-2218, 4,5-dimethyl-N-(2-(2-(pyrrolidine-1-carbonyl)pyridin-4-yl)-1H-pyrrolo[2,3-b]pyridin-5-yl)-1H-pyrazole-3-carboxamide] stands < 10 µM; under `Cc1[nH]nc(C(=O)Nc2cnc3[nH]c(-c4ccnc(C(=O)N5CCSCC5)c4)cc3c2)c1C` [P-2219, 4,5-dimethyl-N-(2-(2-(thiomorpholine-4-carbonyl)pyridin-4-yl)-1H-pyrrolo[2,3-b]pyridin-5-yl)-1H-pyrazole-3-carboxamide], < 10 µM; under `COCCNC(=O)c1cc(-c2cc3cc(NC(=O)c4n[nH]c(C)c4C)cnc3[nH]2)ccn1` [P-2220, 4-(5-(4,5-dimethyl-1H-pyrazole-3-carboxamido)-1H-pyrrolo[2,3-b]pyridin-2-yl)-N-(2-methoxyethyl)picolinamide], < 10 µM.

For the compound `Cc1[nH]nc(C(=O)Nc2cnc3[nH]c(-c4ccnc(C(=O)NCCN(C)C)c4)cc3c2)c1C` [P-2221, 4-(5-(4,5-dimethyl-1H-pyrazole-3-carboxamido)-1H-pyrrolo[2,3-b]pyridin-2-yl)-N-(2-(dimethylamino)ethyl)picolinamide], the IC50 is < 10 µM. Under `CONC(=O)c1cc(-c2cc3cc(NC(=O)c4n[nH]c(C)c4C)cnc3[nH]2)ccn1` [P-2223, 4-(5-(4,5-dimethyl-1H-pyrazole-3-carboxamido)-1H-pyrrolo[2,3-b]pyridin-2-yl)-N-methoxypicolinamide] stands < 10 µM. To `Cc1[nH]nc(C(=O)Nc2cnc3[nH]c(-c4ccnc(C(=O)N(C)C)c4)cc3c2)c1C` [P-2224, 4-(5-(4,5-dimethyl-1H-pyrazole-3-carboxamido)-1H-pyrrolo[2,3-b]pyridin-2-yl)-N,N-dimethylpicolinamide] belongs < 10 µM; to `Cc1[nH]nc(C(=O)Nc2cnc3[nH]c(-c4ccnc(C(=O)NCCN5CCOCC5)c4)cc3c2)c1C` [P-2225, 4-(5-(4,5-dimethyl-1H-pyrazole-3-carboxamido)-1H-pyrrolo[2,3-b]pyridin-2-yl)-N-(2-morpholinoethyl)picolinamide], < 10 µM; to `Cc1[nH]nc(C(=O)Nc2cnc3[nH]c(-c4ccnc(C(=O)NCCN5CCN(C)CC5)c4)cc3c2)c1C` [P-2226, 4-(5-(4,5-dimethyl-1H-pyrazole-3-carboxamido)-1H-pyrrolo[2,3-b]pyridin-2-yl)-N-(2-(4-methylpiperazin-1-yl)ethyl)picolinamide], < 10 µM. Under `Cc1[nH]nc(C(=O)Nc2cnc3[nH]c(-c4ccnc(C(=O)NCCC#N)c4)cc3c2)c1C` [P-2227, N-(2-cyanoethyl)-4-(5-(4,5-dimethyl-1H-pyrazole-3-carboxamido)-1H-pyrrolo[2,3-b]pyridin-2-yl)picolinamide] stands < 10 µM; under `Cc1[nH]nc(C(=O)Nc2cnc3[nH]c(-c4ccnc(C(=O)NCC(C)C)c4)cc3c2)c1C` [P-2228, 4-(5-(4,5-dimethyl-1H-pyrazole-3-carboxamido)-1H-pyrrolo[2,3-b]pyridin-2-yl)-N-isobutylpicolinamide], < 10 µM. Turning to `Cc1[nH]nc(C(=O)Nc2cnc3[nH]c(-c4ccnc(C(=O)NC(C)C)c4)cc3c2)c1C` [P-2229, 4-(5-(4,5-dimethyl-1H-pyrazole-3-carboxamido)-1H-pyrrolo[2,3-b]pyridin-2-yl)-N-isopropylpicolinamide], the 50% inhibitory concentration (IC50) was < 10 µM.

For `CCN(CC)C(=O)c1cc(-c2cc3cc(NC(=O)c4n[nH]c(C)c4C)cnc3[nH]2)ccn1` [P-2230, 4-(5-(4,5-dimethyl-1H-pyrazole-3-carboxamido)-1H-pyrrolo[2,3-b]pyridin-2-yl)-N,N-diethylpicolinamide], the 50% inhibitory concentration (IC50) was < 10 µM.
